Results published in patent US8623855B2, “Azetidinone compounds and medical use thereof” (Zhejiang Hisun Pharmaceutical Co., Ltd., priority 2009, dated 2014).
Like-named read-outs stand apart in the source and are kept apart here.

Key:
[1] = tested on: hypercholesterolemia golden hamster model; test: In vivo pharmacodynamic screening in hypercholesterolemia model of golden hamster (plasma TC and LDL-C); conditions: for inhibition in vivo at 2 mg/kg / inhibition in vivo at 0.4 mg/kg / inhibition in vivo at 10 mg/kg: Table 2; for LDL-C after administration / TC after administration / LDL after administration: 1 week, plasma; for reduction of plasma TC and LDL-C levels (in words): significant statistical difference; for effect of lowering cholesterol (screening result in words): in vivo pharmacodynamic screening test, Ezetimibe as positive control
Procedure: 1. Establishment of Hypercholesterolemia Model of Golden Hamster:
The animals were subjected to acclimation feeding for 1 week with free feeding and drinking under a lighting condition of 10 h/14 h. On Day 8, the animals were raised with high fat feed (consisting of 0.5% cholesterol, 20% palm oil, 79.5% basal feed) for 1 week. Then, each animal was anesthetized by ether. After weighing, 0.5 ml blood was obtained from orbital vein, anticoagulated with heparin and centrifuged at 5000 rpm for 10 min. The plasma was collected and the levels of plasma TC (total cholesterol) and LDL-C (low density lipoprotein cholesterol) were determined by automatic biochemical analyzer. Animals with plasma TC of 9-15 mmol/L were selected as model animals (refer to the following reference for the method of animal modeling: Burrier, R. E., Smith, A. A., Mcgregor, D. G, Hoos, L. M., Zilli, D. L., Davis, H. R. The effect of acyl CoA: cholesterol acyltransferase inhibition on the uptake, esterification and secretion of cholesterol by the hamster small intestine. J. Pharm. Exp. Ther., 1995, 272, 156-163).
The animals were grouped according to TC and LDL-C levels and weight with 6 animals per group. Ezetimibe was used as positive control. The animals were intragastrically administered at a volume of 5 ml/kg for 1 week. Each animal was anesthetized by ether. After weighing, 0.5 ml blood was taken from orbital vein, anticoagulated with heparin, and centrifuged at 5000 rpm for 10 min. The plasma was collected and plasma TC (total cholesterol) and LDL-C (low density lipoprotein cholesterol) levels were determined by automatic biochemical analyzer to evaluate the efficacy of the compounds.

[2] = tested on: normal guinea pig; test: Effect on blood lipid level of normal guinea pigs; type: in vivo; conditions: for HDL after administration / LDL after administration / TC after administration / TG after administration: Table 13
[3] = Mesocricetus auratus, po, 168 h, read-out: Reducing LDL-C %
[4] = Mesocricetus auratus, po, 168 h, read-out: Reducing TC %
[5] = Mesocricetus auratus, po, 168 h, Table 4, 1 mg/kg, read-out: Reducing TC %
[6] = Table 1, baseline of group dosed 2 mg/kg
[7] = Table 11, baseline of group dosed 1 mg/kg
[8] = Table 1, 0.4 mg/kg intragastric
[9] = Table 1, baseline of group dosed 0.4 mg/kg
[10] = Table 1, baseline of group dosed 10 mg/kg
[11] = golden hamster hypercholesterolemic model

Structure (SMILES): O=C1[C@H](CC[C@H](O)c2ccc(F)cc2)[C@@H](c2ccc(O)cc2)N1c1ccc(F)cc1 [Ezetimibe, reference compound]
- inhibition in vivo at 2 mg/kg [1, 3]: 77.6%
- inhibition in vivo at 2 mg/kg [1, 4]: 57.4%
- inhibition in vivo at 1 mg/kg [1, 5]: 58.8%
- inhibition in vivo at 1 mg/kg ([1]; Mesocricetus auratus, po, 168 h, Table 6, 1 mg/kg, read-out: Reducing LDL-C %): 76%
- inhibition in vivo at 1 mg/kg ([1]; Mesocricetus auratus, po, 168 h, Table 6, 1 mg/kg, read-out: Reducing TC %): 58.3%
- inhibition in vivo at 1 mg/kg ([1]; Mesocricetus auratus, po, 168 h, Table 8, 1 mg/kg, read-out: Reducing LDL-C %): 64.2%
- inhibition in vivo at 1 mg/kg ([1]; Mesocricetus auratus, po, 168 h, Table 8, 1 mg/kg, read-out: Reducing TC %): 48.1%
- inhibition in vivo at 1 mg/kg ([1]; Mesocricetus auratus, po, 168 h, Table 10, 1 mg/kg, read-out: Reducing LDL-C %): 68.2%
- inhibition in vivo at 1 mg/kg ([1]; Mesocricetus auratus, po, 168 h, Table 10, 1 mg/kg, read-out: Reducing TC %): 64.4%
- inhibition in vivo at 1 mg/kg ([1]; Mesocricetus auratus, po, 168 h, Table 12, 1 mg/kg, read-out: Reducing LDL-C %): 60.8%
- inhibition in vivo at 1 mg/kg ([1]; Mesocricetus auratus, po, 168 h, Table 12, 1 mg/kg, read-out: Reducing TC %): 58.5%
- LDL-C after administration ([1]; Table 1, 2 mg/kg intragastric): 0.57 ± 0.34 mmol/L
- TC after administration ([1]; Table 1, 2 mg/kg intragastric): 4.21 ± 0.68 mmol/L
- LDL-C before administration [1, 6]: 2.55 ± 0.96 mmol/L
- LDL after administration ([1]; Table 3, 1 mg/kg intragastric): 1.16 ± 0.44 mmol/L
- TC after administration ([1]; Table 3, 1 mg/kg intragastric): 5.62 ± 0.48 mmol/L
- Reducing LDL % ([1]; Table 4, 1 mg/kg): 36.0%
- LDL after administration ([1]; Table 5, 1 mg/kg intragastric): 1.3 mmol/L
- TC after administration ([1]; Table 5, 1 mg/kg intragastric): 4.51 mmol/L
- LDL after administration ([1]; Table 7, 1 mg/kg intragastric): 1.62 mmol/L
- TC after administration ([1]; Table 7, 1 mg/kg intragastric): 5.58 mmol/L
- LDL after administration ([1]; Table 9, 1 mg/kg intragastric): 1.0 mmol/L
- TC after administration ([1]; Table 9, 1 mg/kg intragastric): 5.45 mmol/L
- LDL-C after administration ([1]; Table 11, 1 mg/kg intragastric): 1.13
- TC after administration ([1]; Table 11, 1 mg/kg intragastric): 5.29
- LDL-C before administration [1, 7]: 2.88 ± 0.79
- TC before administration [1, 7]: 12.74 ± 1.44
- HDL after administration ([2]; 2.5 mg/kg): 0.41 mmol/L
- LDL after administration ([2]; 2.5 mg/kg): 0.99 mmol/L
- TC after administration ([2]; 2.5 mg/kg): 1.14 ± 0.24 mmol/L
- TG after administration ([2]; 2.5 mg/kg): 0.41 ± 0.12 mmol/L

Structure (SMILES): O=C1[C@H](C/C=C(\CO)c2ccc(F)cc2)[C@@H](c2ccc(O)cc2)N1c1ccc(F)cc1 [I-1(Z), (3R,4S)-1-(4-fluorophenyl)-3-[(Z)-3-(4-fluorophenyl)-4-hydroxy-but-2-enyl]-4-(4-hydroxyphenyl)azetidin-2-one]
- inhibition in vivo at 0.4 mg/kg [1, 3]: 32.7%
- inhibition in vivo at 0.4 mg/kg [1, 4]: 33.7%
- inhibition in vivo at 2 mg/kg [1, 3]: 72.4%
- inhibition in vivo at 2 mg/kg [1, 4]: 49.7%
- inhibition in vivo at 10 mg/kg [1, 3]: 83.1%
- inhibition in vivo at 10 mg/kg [1, 4]: 55.9%
- inhibition in vivo at 1 mg/kg [1, 5]: 57.5%
- inhibition in vivo at 4 mg/kg ([1]; Mesocricetus auratus, po, 168 h, Table 4, 4 mg/kg, read-out: Reducing TC %): 67.9%
- LDL-C after administration [1, 8]: 1.52 ± 0.31 mmol/L
- TC after administration [1, 8]: 6.46 ± 0.58 mmol/L
- LDL-C after administration ([1]; Table 1, 2 mg/kg intragastric): 0.71 ± 0.49 mmol/L
- TC after administration ([1]; Table 1, 2 mg/kg intragastric): 4.9 ± 0.62 mmol/L
- LDL-C after administration ([1]; Table 1, 10 mg/kg intragastric): 0.42 ± 0.2 mmol/L
- TC after administration ([1]; Table 1, 10 mg/kg intragastric): 4.3 ± 0.85 mmol/L
- LDL-C before administration [1, 9]: 2.26 ± 0.65 mmol/L
- LDL-C before administration [1, 6]: 2.57 ± 0.47 mmol/L
- LDL-C before administration [1, 10]: 2.48 ± 0.67 mmol/L
- LDL after administration ([1]; Table 3, 1 mg/kg intragastric): 1.19 ± 0.16 mmol/L
- TC after administration ([1]; Table 3, 1 mg/kg intragastric): 5.79 ± 0.99 mmol/L
- LDL after administration ([1]; Table 3, 4 mg/kg intragastric): 0.99 ± 0.28 mmol/L
- TC after administration ([1]; Table 3, 4 mg/kg intragastric): 4.37 ± 0.59 mmol/L
- Reducing LDL % ([1]; Table 4, 1 mg/kg): 35.7%
- Reducing LDL % ([1]; Table 4, 4 mg/kg): 46.2%
- effect compared with positive control Ezetimibe at the same dose (in words) ([1]; golden hamster hypercholesterolemic model, same dose): the same as that of the positive control
- reduction of plasma TC and LDL-C levels (in words) [1, 11]: can significantly reduce the plasma TC and LDL-C levels
- effect of lowering cholesterol (screening result in words) [1]: have the effect of lowering cholesterol
- efficacy compared with the positive control (in words) ([1]; positive control Ezetimibe): more similar to the positive control
- HDL after administration ([2]; 0.1 mg/kg): 0.47 mmol/L
- LDL after administration ([2]; 0.1 mg/kg): 1.73 mmol/L
- TC after administration ([2]; 0.1 mg/kg): 1.77 ± 0.43 mmol/L
- TG after administration ([2]; 0.1 mg/kg): 0.38 ± 0.05 mmol/L
- HDL after administration ([2]; 0.5 mg/kg): 0.4 mmol/L
- LDL after administration ([2]; 0.5 mg/kg): 1.75 mmol/L
- TC after administration ([2]; 0.5 mg/kg): 1.9 ± 0.2 mmol/L
- TG after administration ([2]; 0.5 mg/kg): 0.44 ± 0.06 mmol/L
- HDL after administration ([2]; 2.5 mg/kg): 0.47 mmol/L
- LDL after administration ([2]; 2.5 mg/kg): 0.86 mmol/L
- TC after administration ([2]; 2.5 mg/kg): 1.17 ± 0.25 mmol/L
- TG after administration ([2]; 2.5 mg/kg): 0.31 ± 0.12 mmol/L
- reduction of plasma TC and LDL-C levels (in words) ([2]; normal guinea pigs): can significantly reduce the plasma TC and LDL-C levels
- effect compared with positive control Ezetimibe at the same dose (in words) ([2]; normal guinea pigs, same dose): the same as that of the positive control

Structure (SMILES): O=C1[C@H](C/C=C(/CO)c2ccc(F)cc2)[C@@H](c2ccc(O)cc2)N1c1ccc(F)cc1 [I-1(E), (3R,4S)-1-(4-fluorophenyl)-3-[(E)-3-(4-fluorophenyl)-4-hydroxy-but-2-enyl]-4-(4-hydroxyphenyl)azetidin-2-one]
- inhibition in vivo at 0.4 mg/kg [1, 3]: -16.4%
- inhibition in vivo at 0.4 mg/kg [1, 4]: -26.1%
- inhibition in vivo at 2 mg/kg [1, 3]: 0%
- inhibition in vivo at 2 mg/kg [1, 4]: -20.9%
- inhibition in vivo at 10 mg/kg [1, 3]: 30.7%
- inhibition in vivo at 10 mg/kg [1, 4]: 11.7%
- LDL-C after administration [1, 8]: 2.84 ± 0.59 mmol/L
- TC after administration [1, 8]: 12.42 ± 1.4 mmol/L
- LDL-C after administration ([1]; Table 1, 2 mg/kg intragastric): 2.21 ± 0.37 mmol/L
- TC after administration ([1]; Table 1, 2 mg/kg intragastric): 11.19 ± 0.69 mmol/L
- LDL-C after administration ([1]; Table 1, 10 mg/kg intragastric): 1.74 ± 0.62 mmol/L
- TC after administration ([1]; Table 1, 10 mg/kg intragastric): 8.7 ± 0.93 mmol/L
- LDL-C before administration [1, 9]: 2.44 ± 0.46 mmol/L
- LDL-C before administration [1, 6]: 2.21 ± 0.47 mmol/L
- LDL-C before administration [1, 10]: 2.51 ± 0.91 mmol/L
- reduction of plasma TC and LDL-C relative to the amount reduced by Ezetimibe and I-1 (Z) [1, 11]: less than 50%
- reduction of plasma TC and LDL-C levels (in words) [1, 11]: can also lower plasma TC and LDL-C levels
- effect of lowering cholesterol (screening result in words) [1]: certain effect on cholesterol-lowering
